Experimental data taken from ChEMBL document CHEMBL5604063, “ASAP - DENV-2 NS2B-NS3 protease fluorescence dose response” (2024).
Values joined by “and” are separate entries in the source; they are usually repeats but may differ in a detail not shown here. Equal values may be shown once.

Key:
[1] = target: T1, Genome polyprotein (dengue virus type 2, UniProt P29990); format: functional, Thailand/16681/1984
[2] = target: T1, Genome polyprotein; format: functional, Thailand/16681/1984; remark: listed apart in the source

T1 sequence (P29990 1346-1475 limits assumed): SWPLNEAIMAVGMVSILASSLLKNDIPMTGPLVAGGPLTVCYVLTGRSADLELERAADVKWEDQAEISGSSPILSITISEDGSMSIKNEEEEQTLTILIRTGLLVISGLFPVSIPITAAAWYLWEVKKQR
T1 sequence (P29990 1476-2093 limits assumed): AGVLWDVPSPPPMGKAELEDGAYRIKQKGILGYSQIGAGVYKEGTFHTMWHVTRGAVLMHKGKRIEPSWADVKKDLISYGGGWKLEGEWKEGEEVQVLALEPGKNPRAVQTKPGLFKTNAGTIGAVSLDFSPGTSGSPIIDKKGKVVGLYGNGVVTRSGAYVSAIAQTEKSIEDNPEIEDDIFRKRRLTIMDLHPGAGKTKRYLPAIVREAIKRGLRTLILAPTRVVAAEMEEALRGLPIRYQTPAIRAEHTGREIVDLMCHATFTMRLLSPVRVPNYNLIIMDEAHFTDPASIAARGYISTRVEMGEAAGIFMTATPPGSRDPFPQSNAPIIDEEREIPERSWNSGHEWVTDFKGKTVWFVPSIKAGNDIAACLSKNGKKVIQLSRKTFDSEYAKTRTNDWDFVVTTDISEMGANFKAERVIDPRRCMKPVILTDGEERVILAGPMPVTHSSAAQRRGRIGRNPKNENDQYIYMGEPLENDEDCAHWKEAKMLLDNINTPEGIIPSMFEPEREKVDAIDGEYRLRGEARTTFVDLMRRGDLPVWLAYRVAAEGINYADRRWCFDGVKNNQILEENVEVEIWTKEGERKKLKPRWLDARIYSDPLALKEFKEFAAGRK

Compound | IC50 [1] | IC50 [2]
CC(C)c1cc(-c2ccc3[nH]c(C(=O)O)cc3c2)cc(S(N)(=O)=O)c1 | > 99.5 µM | > 100 µM
CC(C)(C)OC(=O)NCc1cc(NC(=O)c2cc(Cl)cc(NC(=O)OCc3ccccc3)c2)cc(-c2nn[nH]n2)c1 | 7.46 µM | 10.7 µM
O=C(O)c1cc2cc(-c3cccc([C@H]4CNCCO4)c3)ccc2[nH]1 | > 99.5 µM | > 100 µM
O=C(O)Cc1c[nH]c2cc(-c3cc(Cl)cc(NC(=O)OCc4ccccc4)c3)ccc12 | 13.3 µM | 9.67 µM
CC(C)(C)c1cc(Br)cc(C(=O)Nc2ccc3c(c2)CNC3)c1 | > 99.5 µM | > 100 µM
Cc1oc2nc(-c3cc(Cl)cc(NC(=O)OCc4ccccc4)c3)ccc2c1C(=O)O | 16.6 µM | 13.7 µM
O=C1CCc2c(cc(Cl)cc2-c2ccc3[nH]c(C(=O)O)cc3c2)N1 | > 99.5 µM | > 100 µM
NCCc1ccc(NC(=O)c2cc(Cl)cc3[nH]ncc23)cc1 | > 99.5 µM | > 100 µM
Clc1ccc2[nH]cc(Cc3ccc4c(c3)CNC4)c2c1 | > 99.5 µM | > 100 µM
O=C(O)c1nc(Cc2c[nH]c3ccc(Cl)cc23)c2ccccn12 | > 99.5 µM | > 100 µM
C=CC[C@H](Nc1ccc2c(c1)CNC2)c1cc(Cl)cc2[nH]ncc12 | 14 µM and 53.1 µM | > 100 µM
O=C(O)c1cc2cc(-c3cc(Cl)cc4c3CCNC4=O)ccc2[nH]1 | > 99.5 µM | > 100 µM
O=C(O)c1cc2cc(-c3cccc([C@H]4COCCN4)c3)ccc2[nH]1 | > 99.5 µM | > 100 µM
CC(C)c1cc(Br)cc(C(=O)Nc2ccc3c(c2)CNC3)c1 | > 99.5 µM | > 100 µM
Cc1[nH]c2ccc(Cl)cc2c1Cc1ccc(-c2nnn[nH]2)cc1 | 42.6 µM | 21 µM
O=C1Cc2cc(NC(=O)c3cc(Cl)cc4[nH]ncc34)ccc2N1 | > 99.5 µM | > 100 µM
O=C(Nc1ccc2c(c1)OCO2)c1cc(Cl)cc2[nH]ncc12 | > 99.5 µM | > 100 µM
O=C(Nc1ccc(C2CNC2)cc1)c1cc(Cl)cc2[nH]ncc12 | > 99.5 µM | > 100 µM
Cn1ncc2c(C(=O)Nc3ccc4c(c3)CNC4)cc(Br)cc21 | > 99.5 µM | > 100 µM
CNC(=O)[C@H](Nc1cc(CNC(=O)OC(C)(C)C)cc(C(=O)O)c1)c1cc(Cl)cc(C2CC2)c1 | > 99.5 µM | > 100 µM
O=C(O)[C@H]1C[C@H](n2ccc(Cc3c[nH]c4ccc(Cl)cc34)n2)C1 | > 99.5 µM | > 100 µM
O=C(Nc1cccc([C@@H]2C[C@H]2C(=O)O)c1)c1cc(Cl)cc2[nH]ncc12 | > 99.5 µM | > 100 µM
C=CC[C@H](Nc1cccc(C2(C(=O)O)CCC2)c1)c1cc(Cl)cc(NC(=O)OCc2ccccc2)c1 | 16.7 µM | 17.2 µM
c1ccc2c(Cc3ccc(-c4nnn[nH]4)cc3)c[nH]c2c1 | > 99.5 µM | > 100 µM
Nc1ccc(NC(=O)c2cc(Cl)cc3[nH]ncc23)cn1 | > 99.5 µM | > 100 µM
N#Cc1cc(-c2ccc3[nH]c(C(=O)O)cc3c2)cc(N2CCCC2)c1 | 63.4 µM | > 100 µM
CNc1c(-c2cc(Cl)cc(C3CC3)c2)nc2cc(C(=O)O)ccn12 | > 99.5 µM | > 100 µM

Compound | IC50 [1] | IC50 [2]
O=C(O)c1nn(-c2ccccc2)cc1Cc1c[nH]c2ccc(Cl)cc12 | 56.5 µM | 61 µM
CNc1c(-c2cc(Cl)cc(C3CC3)c2)nc2cccc(C(=O)O)n12 | > 99.5 µM | > 100 µM
N#Cc1cccc(C[C@H](O)c2cc(Cl)cc(NC(=O)OCc3ccccc3)c2)c1 | > 99.5 µM | > 100 µM
O=C(O)c1ccc(Cc2c[nH]c3ccc(Cl)cc23)cc1 | > 99.5 µM | > 100 µM
N#C[C@]1(Nc2cccc(-c3nn[nH]n3)c2)C(=O)Nc2ccc(Cl)cc21 | > 99.5 µM | > 100 µM
C=CC[C@H](Nc1cncc(Cl)c1)c1cccc(-c2nn[nH]n2)c1 | > 99.5 µM | > 100 µM
C=CC[C@H](Nc1cccc(Cl)c1)c1cccc(-c2nn[nH]n2)c1 | > 99.5 µM | 41.5 µM and 38.9 µM
O=C(O)CCCn1cnc(-c2cc(Cl)cc(NC(=O)OCc3ccccc3)c2)n1 | > 99.5 µM | > 100 µM
N#C[C@H](Nc1cncc(-c2nn[nH]n2)c1)c1cc(Cl)cc(NC(=O)OCc2ccccc2)c1 | 18.7 µM | 11 µM and 10.8 µM
N#C[C@H](c1cc(Cl)cc(C2CC2)c1)N1c2cnccc2C[C@H]1C(=O)O | > 99.5 µM | > 100 µM
NCc1cc(CCc2cc(Cl)cc(NC(=O)OCc3ccccc3)c2)cc(C(=O)O)c1 | > 99.5 µM | > 100 µM
N#C[C@H](Nc1cccc(-c2nn[nH]n2)c1)c1cc(Cl)cc2[nH]ncc12 | > 99.5 µM | 88.3 µM
Clc1cc([C@@H]2C[C@H]2c2cccc(-c3nn[nH]n3)c2)c2cn[nH]c2c1 | 66.2 µM | 20.4 µM and 23.8 µM
O=C(Nc1cc(Cl)cc([C@H]2[C@H](CO)[C@@H]2c2cccc(-c3nn[nH]n3)c2)c1)OCc1ccccc1 | 25.2 µM | 11.3 µM and 13.5 µM
N#C[C@H](Nc1ccc2c(c1)CNC2)c1cc(Cl)cc2[nH]ncc12 | > 99.5 µM | > 100 µM
NCc1cc(Cl)cc(-c2ccc3[nH]c(C(=O)O)cc3c2)c1 | > 99.5 µM | > 100 µM
O=C(Nc1cc(Cl)cc([C@H]2C[C@@H]2c2cccc(-c3nnn[nH]3)c2)c1)OCc1ccccc1 | 16.2 µM | 19.1 µM
N#C[C@H](Nc1ccc(CCC(=O)O)cn1)c1cc(Cl)cc(C2CC2)c1 | > 99.5 µM | > 100 µM
N#C[C@H](Nc1cccn(CC(=O)O)c1=O)c1cc(Cl)cc(C2CC2)c1 | > 99.5 µM | > 100 µM
CNc1ncc(C(F)(F)F)cc1-c1ccc2[nH]c(C(=O)O)cc2c1 | > 99.5 µM | > 100 µM
O=C(Nc1cc(Cl)cc(C(=O)N2CCC(C(=O)O)CC2)c1)OCc1ccccc1 | > 99.5 µM | > 100 µM
O=C(Nc1cc(Cl)cc([C@H](Nc2cccc(-c3nn[nH]n3)c2)C(=O)NC2CCOCC2)c1)OCc1ccccc1 | 40.6 µM | 13.2 µM and 19.9 µM
O=C(O)c1cccc(CCc2cc(Cl)cc3[nH]ncc23)c1 | > 99.5 µM | > 100 µM
O=C(Nc1cc(Cl)cc(-c2cn(C3CCCC3)nc2C(=O)O)c1)OCc1ccccc1 | 34.3 µM | 42.7 µM and 31.7 µM
NCc1cc(NC(=O)c2cc(Cl)cc(NC(=O)OCc3ccccc3)c2)cc([C@@H]2C[C@H]2C(=O)O)c1 | > 99.5 µM | > 100 µM
CNC(=O)[C@H](Nc1cc(CN)cc(C(=O)O)c1)c1cc(Cl)cc(C2CC2)c1 | > 99.5 µM | > 100 µM
N#Cc1cc(CN)cc([C@H]2C[C@@H]2c2cc(Cl)cc(NC(=O)OCc3ccccc3)c2)c1 | > 99.5 µM | > 100 µM

Compound | IC50 [1] | IC50 [2]
NCc1cc(CC(=O)O)cc(NC(=O)c2cc(Cl)cc(NC(=O)OCc3ccccc3)c2)c1 | > 99.5 µM | > 100 µM
O=C(Nc1cc(Cl)cc(C(=O)N2CCC[C@H]2C(=O)O)c1)OCc1ccccc1 | > 99.5 µM | > 100 µM
C[C@@]1(c2cccc(CN)c2)C[C@H]1c1cc(Cl)cc(NC(=O)OCc2ccccc2)c1 | 17.5 µM | > 100 µM
COc1cc(-c2cc(Cl)cc(NC(=O)OCc3ccccc3)c2)c(OC)cc1CC(=O)O | 32.8 µM | 18.4 µM and 18.3 µM
O=C(Nc1cc(Cl)cc([C@H]2Nc3ccc(-c4nn[nH]n4)cc3[C@H]3OCCC[C@@H]23)c1)OCc1ccccc1 | > 99.5 µM | > 100 µM
Cc1c(C(=O)Nc2cccc(-c3nnn[nH]3)c2)cnn1-c1ccc(Cl)cc1 | > 99.5 µM | > 100 µM
OCC#C[C@H](Nc1ccc2c(c1)CNC2)c1cc(Cl)cc2[nH]ncc12 | 25.1 µM | 92.7 µM and 63.7 µM
CNC(=O)[C@H](Nc1cc(Cl)cc(C2CC2)c1)c1ccc(-c2nn[nH]n2)cc1 | > 99.5 µM | 99.6 µM and > 100 µM
NCc1cccc([C@H](C#CCO)Nc2cc(Cl)cc(NC(=O)OCc3ccccc3)c2)c1 | 64.9 µM | > 100 µM
CNC(=O)[C@H](Nc1cccc(C2(C(=O)O)CCC2)c1)c1cc(Cl)cc(C2CC2)c1 | > 99.5 µM | > 100 µM
CNC(=O)c1cc(CN)cc([C@@H]2C[C@H]2c2cc(Cl)cc(NC(=O)OCc3ccccc3)c2)c1 | 29.6 µM | > 100 µM
N#Cc1cc(Cl)cc(-c2ccc3[nH]c(C(=O)O)cc3c2)c1 | > 99.5 µM | > 100 µM and 82.1 µM
C[C@@]1(c2cc(Cl)cc(NC(=O)OCc3ccccc3)c2)C[C@H]1c1cccc(CN)c1 | 88.1 µM | > 100 µM
O=C(O)c1cc2cc(-c3cc(Cl)cc(C4CC4)c3)ccc2[nH]1 | 15.7 µM | 11.4 µM and 11 µM
CNC(=O)[C@H](Nc1cncc(C(=O)O)c1)c1cc(Cl)cc(C2CC2)c1 | > 99.5 µM | > 100 µM
C[C@H](C(=O)O)N(C)C(=O)c1cc(Cl)cc(NC(=O)OCc2ccccc2)c1 | > 99.5 µM | > 100 µM
C[C@](O)(Cc1cc(Cl)cc(NC(=O)OCc2ccccc2)c1)c1cccc(CN)c1 | > 99.5 µM | > 100 µM
CN(C)CCNC(=O)[C@H](Nc1cccc(-c2nn[nH]n2)c1)c1cc(Cl)cc(NC(=O)OCc2ccccc2)c1 | 97.3 µM | 47.2 µM and 67.4 µM and > 100 µM
CCc1cc(Br)cc2c(Cc3ccc(-c4nnn[nH]4)cc3)c[nH]c12 | 12 µM | 8.03 µM and 9.26 µM
CN(C)C(=O)Nc1cccc([C@@H]2C[C@H]2c2cc(Cl)cc(NC(=O)OCc3ccccc3)c2)c1 | > 99.5 µM | > 100 µM
CNC(=O)[C@H](Nc1cc(CN)cc(C(=O)O)c1)c1cc(Cl)cc(NC(=O)OCc2ccccc2)c1 | > 99.5 µM | > 100 µM
CC(C)[C@H](CC(=O)O)NC(=O)c1cc(Cl)cc(NC(=O)OCc2ccccc2)c1 | > 99.5 µM | > 100 µM
N#C[C@H](Nc1ccc(CC(=O)O)cn1)c1cc(Cl)cc(C2CC2)c1 | > 99.5 µM | > 100 µM
CNC(=O)[C@H](Nc1cc(CN)cc(-c2nn[nH]n2)c1)c1cc(Cl)cc(C2CC2)c1 | > 99.5 µM | > 100 µM
O=C(Nc1cc(Cl)cc(C(=O)Nc2ccnc(C(=O)O)c2)c1)OCc1ccccc1 | 66.9 µM | > 100 µM
O=C(Nc1cc(Cl)cc(C(=O)N2CC[C@H](C(=O)O)C2)c1)OCc1ccccc1 | > 99.5 µM | > 100 µM
